Measurements published in US20230293517A1, “ANTAGONIST COMPOUNDS” (AdoRx Therapeutics Limited, priority 2020, published 2023).
Like-named read-outs stand apart in the source and are kept apart here.

Experiments:
[1] = tested on: CD8+T cells in human whole blood; assay: Measurement of pCREB in CD8+T cells in human whole blood; type: cell-based; conditions: 3 μM NECA, rolipram
Outline: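 Heparinised human whole blood pre-incubated 20 min at 37 °C with serially diluted A2a antagonists plus rolipram, then stimulated 60 min with 3 μM NECA (final). After fixation and red-cell lysis, white cells were permeabilized and stained for phospho-CREB and CD8; pCREB in CD8+ T cells measured by flow cytometry.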

[2] = biological target: human Adenosine A2a receptor (Homo sapiens (Human), UniProt P29274); assay: Adenosine receptor TR-FRET binding assay (A2a); conditions: inhibition of binding of 100 nM CA200645, CHO cell membranes
Sequence of human Adenosine A2a receptor (P29274 whole entry): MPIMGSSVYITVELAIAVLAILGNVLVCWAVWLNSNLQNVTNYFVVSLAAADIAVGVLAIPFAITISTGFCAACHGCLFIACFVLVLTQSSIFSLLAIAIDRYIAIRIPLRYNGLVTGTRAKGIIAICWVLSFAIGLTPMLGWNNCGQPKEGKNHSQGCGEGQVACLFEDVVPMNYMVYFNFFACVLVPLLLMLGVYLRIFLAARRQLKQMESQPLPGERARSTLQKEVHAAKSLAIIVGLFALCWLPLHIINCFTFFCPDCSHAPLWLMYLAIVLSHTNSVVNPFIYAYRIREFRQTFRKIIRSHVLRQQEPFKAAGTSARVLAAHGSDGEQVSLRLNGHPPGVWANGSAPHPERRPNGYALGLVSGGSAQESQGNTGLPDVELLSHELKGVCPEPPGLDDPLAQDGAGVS
Outline: (§1)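 Terbium-labelled human receptors in CHO cell membranes were incubated 2 h at room temperature with test compounds and fluorescent XAC tracer CA200645 (30 nM for A2b; 100 nM for A1, A2a, A3). TR-FRET 665/620 nm ratio gave specific binding; Ki derived from IC50 by Cheng–Prusoff.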

[3] = biological target: human Adenosine A2b receptor (Homo sapiens (Human), UniProt P29275); assay: Adenosine receptor TR-FRET binding assay (A2b)
Sequence of human Adenosine A2b receptor (P29275 whole entry): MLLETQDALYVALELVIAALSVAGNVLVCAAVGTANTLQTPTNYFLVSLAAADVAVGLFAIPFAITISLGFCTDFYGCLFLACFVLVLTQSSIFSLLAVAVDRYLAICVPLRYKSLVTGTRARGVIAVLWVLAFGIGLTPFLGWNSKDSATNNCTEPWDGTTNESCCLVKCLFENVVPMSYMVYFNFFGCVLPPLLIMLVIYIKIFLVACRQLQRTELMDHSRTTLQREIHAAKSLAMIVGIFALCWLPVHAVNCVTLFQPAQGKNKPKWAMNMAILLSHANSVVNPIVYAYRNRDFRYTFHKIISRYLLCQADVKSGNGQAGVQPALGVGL
Outline: as §1

[4] = tested on: immature monocyte-derived dendritic cells (MoDC); assay: MoDC pCREB assay; type: cell-based, human; conditions: pCREB in immature MoDC, 1 μM NECA, rolipram
Method: Monocytes are isolated from human whole blood using CD14 microbeads (Miltenyi Biotec 130-050-201) and differentiated to immature monocyte-derived dendritic cells (MoDC) by culture for 5 days in Mo-DC Differentiation Medium (Miltenyi Biotec 130-094-812). MoDCs are seeded into fresh medium into U bottomed 96 well culture plates and pre-incubated at 37° C. with serial dilutions of A2A/B antagonists for 15 min. At the same time the cells are co-incubated with the phosphodiesterase inhibitor rolipram (final concentration of 20 µM) to amplify the subsequent pCREB response. Adenosine receptor agonist NECA is then added at 1 μM final concentration, leading to an increase in CREB phosphorylation. Following a 45 min incubation at 37° C., the cells are fixed, permeabilized and stained with directly conjugated fluorescent antibodies to phospho-CREB (Alexa Fluor 488), CD209 (PerCP-Cy5.5) and CD86 (APC). Samples are analysed by FACS to measure fluorescence in corresponding channels, and also forward and Side scatter. The population of CD209+/CD86− low cells corresponding to immature dendritic cells is gated for analysis of pCREB levels.
Approximately 5% of the analysed cells are positive for detection of pCREB in the absence of agonist stimulation, representing the background signalling of all pathways upstream of CREB. Following NECA stimulation this is increased to ˜80% pCREB+ve, and this increase is essentially fully reversible by A2B or dual A2A/B antagonists.
IC50 is represented as the point of inflection of a sigmoidal curve

[5] = biological target: human Adenosine A3 receptor (Homo sapiens (Human), UniProt P0DMS8); assay: Adenosine receptor TR-FRET binding assay (A3); conditions: inhibition of binding of 100 nM CA200645, CHO cell membranes
Sequence of human Adenosine A3 receptor (P0DMS8 whole entry): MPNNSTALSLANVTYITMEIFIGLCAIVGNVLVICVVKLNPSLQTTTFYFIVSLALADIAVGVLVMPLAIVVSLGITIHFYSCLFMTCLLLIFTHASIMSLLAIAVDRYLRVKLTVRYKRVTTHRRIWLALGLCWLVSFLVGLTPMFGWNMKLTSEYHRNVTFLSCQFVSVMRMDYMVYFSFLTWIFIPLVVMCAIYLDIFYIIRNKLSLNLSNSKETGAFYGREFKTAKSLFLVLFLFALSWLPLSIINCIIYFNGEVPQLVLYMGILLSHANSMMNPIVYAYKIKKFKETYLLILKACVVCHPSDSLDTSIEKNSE
Outline: as §1

[6] = biological target: human Adenosine A1 receptor (Homo sapiens (Human), UniProt P30542); assay: Adenosine receptor TR-FRET binding assay (A1); conditions: inhibition of binding of 100 nM CA200645, CHO cell membranes
Sequence of human Adenosine A1 receptor (P30542 whole entry): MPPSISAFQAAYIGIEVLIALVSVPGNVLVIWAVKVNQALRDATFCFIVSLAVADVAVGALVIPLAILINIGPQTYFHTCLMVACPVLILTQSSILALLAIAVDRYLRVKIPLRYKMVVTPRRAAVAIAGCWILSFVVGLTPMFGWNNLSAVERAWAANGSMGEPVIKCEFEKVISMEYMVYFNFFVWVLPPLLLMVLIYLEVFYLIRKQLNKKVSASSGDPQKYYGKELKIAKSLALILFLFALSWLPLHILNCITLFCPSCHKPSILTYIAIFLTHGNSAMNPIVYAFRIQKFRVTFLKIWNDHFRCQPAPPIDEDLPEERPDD
Outline: as §1

human PBMCs = assay: CD3/CD28 stimulated IL-2 release NECA reversal assay in human PBMCs; type: cell-based; conditions: PBMC, 1 uM NECA, 24 hours, IL-2 in culture supernatant
Outline: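 PBMCs from citrated healthy-donor blood plated at 50,000 cells/well on 1 ug/ml CD3 antibody with 1 ug/ml CD28 antibody, 1 uM NECA and 0.003-10 μM antagonist (final), 24 h at 37° C. Supernatant IL-2 measured by MSD immunoassay; % inhibition set against no-NECA control wells as 100%.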

[7] = TR-FRET, inhibition of binding of 30 nM CA200645, CHO cell membranes

Cc1cc(-c2sc(NC(=O)N3C[C@@H]4OCCN(C)[C@@H]4C3)nc2-c2cccc(C#N)c2)cc(C)n1 (racemic) [Example 6.98, rac-(4aR,7aS)-N-[4-(3-Cyanophenyl)-5-(2,6-dimethyl-4-pyridyl)thiazol-2-yl]-4-methyl-2,3,4a,5,7,7a-hexahydropyrrolo[3,4-b][1,4]oxazine-6-carboxamide] was tested, and the IC50 [1] was 50 nM, the Ki [2] was 0.91 nM and the Ki [3] was 7 nM. For the same molecule, the IC50 ([4]; Homo sapiens, Dendritic cell) was 72 nM and the Ki [5] was 819 nM.

In the case of Cc1cc(-c2sc(NC(=O)N3CC4(COC4)C3)nc2-c2cccc(C#N)c2)cc(C(C)O)n1 (racemic) [Example 12.3, N-[4-(3-Cyanophenyl)-5-[2-(1-hydroxyethyl)-6-methyl-4-pyridyl]thiazol-2-yl]-2-oxa-6-azaspiro[3.3]heptane-6-carboxamide], the IC50 [1] is reported as 20 nM, the Ki [2] is reported as 0.44 nM and the Ki [3, 7] is reported as 5 nM. The IC50 ([4]; Homo sapiens, Dendritic cell) was 31 nM, the Ki [6] was 27 nM and the Ki [5] was 1810 nM.

Cc1cc(-c2sc(NC(=O)N3CC4(COC4)C3)nc2-c2cccc(C#N)c2)cc([C@@H](C)O)n1 (single isomer, unassigned) [Example 12.3a, N-[4-(3-Cyanophenyl)-5-[2-[(1R)-1-hydroxyethyl]-6-methyl-4-pyridyl]thiazol-2-yl]-2-oxa-6-azaspiro[3.3]heptane-6-carboxamide or N-[4-(3-cyanophenyl)-5-[2-[(1S)-1-hydroxyethyl]-6-methyl-4-pyridyl]thiazol-2-yl]-2-oxa-6-azaspiro[3.3]heptane-6-carboxamide] gave an IC50 [1] of 10 nM, a Ki [2] of 0.18 nM and a Ki [3, 7] of 2.6 nM. It also gave an IC50 [4] of 16 nM, a Ki [6] of 23 nM and a Ki [5] of 1090 nM.

Cc1cc(-c2sc(NC(=O)N3CCC(S(N)(=O)=O)C3)nc2-c2cccc(C#N)c2)cc(C)n1 (stereo not drawn) [Example 6.2, N-[4-(3-Cyanophenyl)-5-(2,6-dimethyl-4-pyridyl)thiazol-2-yl]-3-sulfamoyl-pyrrolidine-1-carboxamide] was tested, and the Ki [2] was 1.28 nM, the Ki [3, 7] was 0.9 nM and the IC50 ([4]; Homo sapiens, Dendritic cell) was 28 nM. It also gave a Ki [6] of 24 nM and a Ki [5] of 166 nM.

With Cc1cc(-c2sc(NC(=O)N3CC4(COC4)C3)nc2-c2cccc(C#N)c2)cc(Cl)n1 [Example 6.100, N-[5-(2-Chloro-6-methyl-4-pyridyl)-4-(3-cyanophenyl)thiazol-2-yl]-2-oxa-6-azaspiro[3.3]heptane-6-carboxamide] the Ki [2] was 0.16 nM, the Ki [3, 7] was 0.6 nM and the IC50 ([4]; Homo sapiens, Dendritic cell) was 10 nM. The Ki [6] was 25 nM and the Ki [5] was 549 nM.

[2H]C([2H])([2H])c1cc(-c2sc(NC(=O)N3CC4(COC4)C3)nc2-c2cccc(C#N)c2)cc(C([2H])([2H])[2H])n1 [Example 6.104, N-[5-[2,6-Bis(trideuteriomethyl)-4-pyridyl]-4-(3-cyanophenyl)thiazol-2-yl]-2-oxa-6-azaspiro[3.3]heptane-6-carboxamide] gave a Ki [2] of 0.2 nM, a Ki [3, 7] of 1 nM and an IC50 ([4]; Homo sapiens, Dendritic cell) of 12 nM. The Ki [6] was 31 nM and the Ki [5] was 564 nM.

In the case of Cc1cc(-c2sc(NC(=O)N3CC4(COC4)C3)nc2-c2cccc(C#N)c2)c(F)c(C)n1 [Example 6.105, N-[4-(3-Cyanophenyl)-5-(3-fluoro-2,6-dimethyl-4-pyridyl)thiazol-2-yl]-2-oxa-6-azaspiro[3.3]heptane-6-carboxamide], the Ki [2] is reported as 1.27 nM, the Ki [3, 7] is reported as 1.3 nM and the IC50 ([4]; Homo sapiens, Dendritic cell) is reported as 4 nM. It also gave a Ki [6] of 71 nM and a Ki [5] of 368 nM.

Cc1cc(-c2sc(NC(=O)N3CCC4(CNCCO4)C3)nc2-c2cccc(C#N)c2)cc(C(F)F)n1 (stereo not drawn) [Example 6.108, N-[4-(3-Cyanophenyl)-5-[2-(difluoromethyl)-6-methyl-4-pyridyl]thiazol-2-yl]-6-oxa-2,9-diazaspiro[4.5]decane-2-carboxamide] was tested, and the Ki [2] was 0.59 nM, the Ki [3, 7] was 0.9 nM and the IC50 ([4]; Homo sapiens, Dendritic cell) was 62 nM. The Ki [6] was 34 nM and the Ki [5] was 145 nM.

With Cc1cc(-c2sc(NC(=O)N3CCNCC3)nc2-c2cccc(C#N)c2)cc(C)n1 [Example 7, N-[4-(3-Cyanophenyl)-5-(2,6-dimethyl-4-pyridyl)thiazol-2-yl]piperazine-1-carboxamide] the IC50 [1] was 580 nM, the Ki [2] was 2.81 nM and the Ki [3, 7] was 11.1 nM. The Ki [6] was 42 nM, the IC50 (human PBMCs) was 16 nM and the Ki [5] was 304 nM.

Molecule Cc1cc(-c2sc(NC(=O)N3CCN[C@H](C)C3)nc2-c2cccc(C#N)c2)cc(C)n1 [Example 7.1, (3R)—N-[4-(3-Cyanophenyl)-5-(2,6-dimethyl-4-pyridyl)thiazol-2-yl]-3-methyl-piperazine-1-carboxamide] has an IC50 [1] of 650 nM, a Ki [2] of 0.99 nM and a Ki [3, 7] of 7.6 nM. It also gave a Ki [6] of 47 nM, an IC50 (human PBMCs) of 20.5 nM and a Ki [5] of 418 nM.

Cc1cc(-c2sc(NC(=O)N3CC[C@@H](C(C)(C)O)C3)nc2-c2cccc(C#N)c2)cc(CO)n1 [Example 9.2] gave an IC50 [1] of 20 nM, a Ki [2] of 0.79 nM and a Ki [3, 7] of 5.3 nM. The Ki [6] was 102 nM, the IC50 (human PBMCs) was 2.7 nM and the Ki [5] was 772 nM.

Molecule Cc1cc(-c2sc(NC(=O)N3CCC(C#N)(CO)CC3)nc2-c2cccc(C#N)c2)cc(CO)n1 [Example 9.7] has an IC50 [1] of 10 nM, a Ki [2] of 0.42 nM and a Ki [3, 7] of 3.2 nM. The Ki [6] was 68 nM, the IC50 (human PBMCs) was 1 nM and the Ki [5] was 742 nM.

Molecule COC1(C#N)CCN(C(=O)Nc2nc(-c3cccc(C#N)c3)c(-c3cc(C)nc(CO)c3)s2)CC1 [Example 9.9] has an IC50 [1] of 20 nM, a Ki [2] of 0.31 nM and a Ki [3, 7] of 3.1 nM. It also gave a Ki [6] of 48 nM, an IC50 (human PBMCs) of 1.3 nM and a Ki [5] of 491 nM.

In the case of Cc1cc(-c2sc(NC(=O)N3CC[S+]([O-])CC3)nc2-c2cccc(C#N)c2)c(F)c(C)n1 [Example 10, N-[4-(3-Cyanophenyl)-5-(3-fluoro-2,6-dimethyl-4-pyridyl)thiazol-2-yl]-1-oxo-1,4-thiazinane-4-carboxamide], the IC50 [1] is reported as 1060 nM, the Ki [2] is reported as 1.19 nM and the Ki [3, 7] is reported as 1.4 nM. The Ki [6] was 43 nM, the IC50 (human PBMCs) was 24.7 nM and the Ki [5] was 283 nM.

Cc1cc(-c2sc(NC(=O)N3CCS(=O)(=NC#N)CC3)nc2-c2cccc(C#N)c2)cc(C)n1 [Example 11, 1-Cyanoimino-N-[4-(3-cyanophenyl)-5-(2,6-dimethyl-4-pyridyl)thiazol-2-yl]-1-oxo-1,4-thiazinane-4-carboxamide] gave an IC50 [1] of 1130 nM, a Ki [2] of 0.62 nM and a Ki [3, 7] of 1.3 nM. The Ki [6] was 51 nM, the IC50 (human PBMCs) was 10.5 nM and the Ki [5] was 515 nM.

Cc1cc(-c2sc(NC(=O)N3CCC(C)(C#N)CC3)nc2-c2cccc(C#N)c2)cc(C(C)(C)O)n1 [Example 12, 4-Cyano-N-[4-(3-cyanophenyl)-5-[2-(1-hydroxy-1-methyl-ethyl)-6-methyl-4-pyridyl]thiazol-2-yl]-4-methyl-piperidine-1-carboxamide] was tested, and the Ki [2] was 0.16 nM, the Ki [3, 7] was 3.1 nM and the IC50 ([4]; Homo sapiens, Dendritic cell) was 73 nM. The Ki [6] was 6 nM and the Ki [5] was 930 nM.

With Cc1cc(-c2sc(NC(=O)N3CCS(=N)(=O)CC3)nc2-c2cccc(C#N)c2)cc(C(F)F)n1 [Example 16.1] the IC50 [1] was 120 nM, the Ki [2] was 0.29 nM and the Ki [3, 7] was 2.2 nM. The Ki [6] was 22 nM, the IC50 (human PBMCs) was 6.7 nM and the Ki [5] was 257 nM.

Work on Cc1cc(-c2sc(NC(=O)N3CC4(COC4)C3)nc2-c2cccc(C#N)c2)cc(C2COC2)n1 [Example 16.4] yielded a Ki [2] of 0.13 nM, a Ki [3, 7] of 3.3 nM and an IC50 ([4]; Homo sapiens, Dendritic cell) of 36 nM. For the same molecule, the Ki [6] was 12 nM and the Ki [5] was 1710 nM.

CCc1cc(-c2sc(NC(=O)N3CC4(COC4)C3)nc2-c2cccc(C#N)c2)cc(C)n1 [Example 16.9] gave a Ki [2] of 0.1 nM, a Ki [3, 7] of 0.8 nM and an IC50 ([4]; Homo sapiens, Dendritic cell) of 18 nM. It also gave a Ki [6] of 9 nM and a Ki [5] of 350 nM.

In the case of Cc1cc(-c2sc(NC(=O)N3CCC(C)(C#N)CC3)nc2-c2cccc(C#N)c2C)cc(C)n1 [Example 18, 4-Cyano-N-[4-(3-cyano-2-methyl-phenyl)-5-(2,6-dimethyl-4-pyridyl)thiazol-2-yl]-4-methyl-piperidine-1-carboxamide], the IC50 [1] is reported as 410 nM, the Ki [2] is reported as 0.39 nM and the Ki [3, 7] is reported as 3.4 nM. It also gave a Ki [6] of 248 nM, an IC50 (human PBMCs) of 7.2 nM and a Ki [5] of 852 nM.
